Measurements reported in patent US6518317B1, “Antiviral agents” (priority 1997, dated 2003).

Experiments:
[1] = system: H9 cells; assay: Survival rate of human T cells, H9; type: cell-based; details: three days
[2] = Anti-inflammatory test of TPA in conchae of mice; type: in vivo; details: 2.5 mg (per mouse) applied to concha of the mouse
[3] = system: CEM-SS cells; assay: Survival rate of human T cells, CEM-SS; type: cell-based; details: 0.5-5 m M, three days
[4] = Single oral administration toxicity in rats; type: in vivo; details: single oral administration of 100 mg/kg
[5] = system: heat shock protein of 70 kDa; assay: Induction of heat shock protein of 70 kDa in HL-60 cells (SDS-PAGE and blotting); type: cell-based, human; set-up: key to Induction of Heat Shock Proteins: +++: “+” indicates degree of intensity of induction and the more the numbers of “+”, the more the intensity of induction; ++: “+” indicates degree of intensity of induction and the more the numbers of “+”, the more the intensity of induction; “+” indicates degree of intensity of induction and the more the numbers of “+”, the more the intensity of induction; “±” means the induction was slight; “−” means that no induction was noted; details: for Induction of Heat Shock Proteins: HL-60 cells, eight hours
Description: (1) An RPMI 1640 medium (5 ml) containing 10% of fetal bovine serum which contained 2×10^5 cells/ml of human promyelocytic leukemia cells HL-60 (ATCC CCL-240) was placed in each well of a six-well plate, incubated at 37° C. for 24 hours in the presence of 5% of CO2, then the cyclopentenone described in the referential example L was added thereto to make its final concentration 0, 10, 20, 30, 40, 50, or 100 μM and the incubation was further continued for eight hours more.
After completion of the incubation, cell numbers were counted and the cells were recovered by centrifugation and washed with phosphate-buffered saline (PBS) to prepare cyclopentenone-treated cells. In the meanwhile, cells which were heated at 45° C. for ten minutes followed by subjecting to the same incubation were prepared as well.
The cells treated as such were subjected to an SDS-polyacrylamid gel electrophoresis (SDS-PAGE) by a method mentioned in “Molecular Cloning” [Cold Spring Harbor Laboratory Press, (1989)]. The treated cells were suspended in an SDS-PAGE sample buffer to make the concentration 2.5×10^6 cells/ml, the resulting cell suspension was treated at 100° C. for ten minutes and each 5 μl thereof was applied to two sheets of SDS-PAGE gels (5% stacking gel; 10% separation gel) to conduct anelectrophoresis. One of the gels was Coomassie stained while another gel was subjected to a blotting to a polyvinylidene difluoride transfer membrane (Immobilon™, manufactured by Millipore, catalog no. IPVH000-10). The membrane was subjected to a blocking at 4° C. for one night with Block Ace (manufactured by Dainippon Pharmaceutical; catalog no. UK-B25).
The blocked membrane was made to react with monoclonal antibody HSP 72/73 (Ab-1) (manufactured by Oncogene Research Products, catalog no. HSP01) which would specifically react with heat-induced heat shock protein of 70 kDa and washed with TBS containing 0.05% of Tween 20 followed by further washing with TBS. After that, it was made to react with peroxidase-compounded secondary antibody HRP-Rabbit Anti-Mouse IgG (H+L) (manufactured by Zymed Laboratories, catalog no. 61-6520) and washed by the same manner as in the above operation. The membranes which were treated with primary and secondary antibodies as such were made to react with Renaissance™ (a chemiluminor reagent manufactured by Dupont NEN, catalog no. NEL-100) and photosensitized with an X-ray film to confirm the induction of heat shock protein of 70 kDa.
The result was that, by addition of cyclopentenone (20 to 30 μM), induction of heat shock protein of 70 kDa which is almost same as heat-treated at 45° C. for 10 minutes was confirmed. In Table 1, “+” indicates degree of intensity of induction and the more the numbers of “+”, the more the intensity of induction. Incidentally, “−” means that no induction was noted and “±” means the induction was slight.

[6] = system: NIH3T3 cells; assay: Colony formation of NIH3T3 cells; details: 5 μM, nine days, NIH3T3, three runs
[7] = system: NIH3T3/E7-2; assay: Colony formation of HPV16 type E7-transformed cell strain NIH3T3/E7-2; type: cell-based; details: 5 μM
Description: Each incubation was conducted in three runs.

[8] = system: CEM-SS cells infected by HIV-1IIIB (CEM-3B); assay: Survival rate of HIV-infected T cells, CEM-3B; type: cell-based, human; details: three days
Description: (§1) The cyclopentenone (1-5 μM) was added to CEM-SS cells infected by HIV-1IIIB (abbreviated as CEM-3B) or to H9 cells infected by HIV-1IIIB (abbreviated as H9-3B) and incubated for three days. In both cells, 90% or more of the cells were infected by HIV-1IIIB. Numbers of living and dead cells were counted and the survival rate of the cells was calculated therefrom.
Thus, FIG. 3 and FIG. 4 are the graphs showing the relation between the concentration of the cyclopentenone added and the survival rate of the cells in which abscissa is the concentration (μM) of the cyclopentenone added While ordinate is the survival rate (%) of the cells after incubating for three days. FIG. 3 is the result when CEM-3B were used while FIG. 4 is the result when H9-3B were used.

[9] = system: Ad5 dlX [an adenovirus]; assay: Adenovirus hexon protein in HeLa cells treated with cyclopentenone before infection; type: cell-based; details: 10 μM or higher, six hours before infection, m.o.i. 50, 20 hours
Description: After that, the cells were washed with the DMEM containing 5% of fetal bovine serum, then the DMEM containing 5% of fetal bovine serum which contained Ad5 dlX [an adenovirus; Saito, etal.; Journal ofVirology, volume 54, pages 711-719 (1985)] was added to the cells so that the cells were infected therewith and incubation was conducted for 20 hours. […] The medium was discarded, 1 ml of 10% trichloroacetic acid was added to each of the wells and the cells were recovered by a scraper.
Then SDS-PAGE and blotting of the treated cells obtained hereinabove were conducted by the method of Example 1 to detect the expression of hexon proteins of the adenovirus. Incidentally, anti-adenovirus hexon antibody (AB 1056; manufactured by Chemicon International Inc.) was used as the primary antibody.

[10] = system: HIV-1IIIB; assay: p24 antigen in supernatant liquid of H9-3B culture; type: cell-based; details: three days
Description: as §1
Concentration of the p24 antigen contained in the supernatant liquid of the culture after incubation for three days in the case of Example 5-(2) was measured. The result was that the concentration of p24 decreased corresponding to the centration of the cyclopentenone added thereto whereupon the anti-HIV action was noted. In Table 10, the figures in parentheses are the ratio of each of the supernatant liquid of the cell cultures (when none of the cyclopentenone was added) to the concentration of p24 expressed in terms of %.

SMILES: O=C1C=CC(O)C1O (stereo not shown) [cyclopentenone, 4,5-dihydroxy-2-cyclopenten-1-one]
- survival rate of the cells [1]: no significant decrease
- anti-inflammatory activity [2]: no anti-inflammatory activity
- survival rate of the cells [3]: no significant decrease
- dead cases [4]: no dead case
- concentration at which the ability for inducing HSP70 becomes maximum [5]: 20 to 30 µM
- concentration at which the ability for inducing HSP70 is noted [5]: 10 µM
- Induction of Heat Shock Proteins ([5]; 10 μM): +
- Induction of Heat Shock Proteins ([5]; 20 μM): +++
- Induction of Heat Shock Proteins ([5]; 30 μM): +++
- Induction of Heat Shock Proteins ([5]; 40 μM): ++
- Induction of Heat Shock Proteins ([5]; 50 μM): +
- Induction of Heat Shock Proteins ([5]; 100 μM): ±
- ability inducing the HSP70 compared with prostaglandin A1 ([5]; compared in molar concentration): equivalent
- Numbers (average ± SD) of the Colonies [6]: 85.3 ± 4.0
- sensitivity of the cells into which E7 was introduced compared with the control cells [7]: high sensitivity
- Numbers (average ± SD) of the Colonies ([7]; nine days, NIH3T3/E7-2, three runs): 22.3 ± 3.5
- survival rate of the cells ([8]; 3 μM): significantly decreased
- survival rate of the cells ([8]; 5 μM): further decreased
- amount of the hexon protein compared with the control [9]: apparently decreased
- Concentration of p24 in Supernatant Liquid of the cell cultures ([10]; 1 μM): 203 ng/mL
- ratio to the concentration of p24 when none of the cyclopentenone was added ([10]; 1 μM): 97%
- Concentration of p24 in Supernatant Liquid of the cell cultures ([10]; 3 μM): 157 ng/mL
- ratio to the concentration of p24 when none of the cyclopentenone was added ([10]; 3 μM): 75%
- Concentration of p24 in Supernatant Liquid of the cell cultures ([10]; 5 μM): 148 ng/mL
- ratio to the concentration of p24 when none of the cyclopentenone was added ([10]; 5 μM): 70%
